Legend:
[1] = tested on: anesthetized rats; test: Basal cardiovascular parameters in anesthetized, pre-treated rats; type: in vivo, rat; settings: 15 min after i.v. bolus (enalaprilat 0.1 mg/kg, Plummer's inhibitor 0.75 mg/kg, icatibant 10 μg/kg, B-9858 20 μg/kg), means ± SEM
Description: (§1) The femoral arterial catheter implanted to monitor direct blood pressure was connected to a pressure transducer (TSD 104A, Biopac Systems Inc., Goleta, CA, USA) coupled to a computer-based data acquisition system (MP100, Biopac Systems Inc., Goleta, CA, USA) to continuously record pulsate arterial pressure. The animals were maintained under anesthesia and were warmed with a heated pad.
(§2) The mechanism subserving the cardiovascular responses to i.v. injections of increasing doses of the different BK agonists was first investigated in animals pretreated with the ACE inhibitor, enalaprilat. In these experiments, the animals were separated in five groups depending on the agonist tested. Enalaprilat was intravenously administered as bolus (0.1 mg/kg, 0.1 ml) following a 10 min period of baseline measurements of HR and blood pressure. Fifteen minutes later, dose-response curves to BK, BK-His-Leu, B-9972, BK-Arg, or BK-Ala-Pro were obtained in the indicated group of rats, as described above. Further experiments were made in rats pretreated with the Plummer’s inhibitor (mercaptomethyl- 3-guanidinoethylthiopropanoic acid), a high affinity inhibitor of arginine carboxypeptidases that is an arginine analog ([Plummer and Ryan, 1981]). In these experiments, the inhibitor was intravenously administered as bolus (0.75 mg/kg, 0.1 ml) followed 15 min later by the i.v. injection of increasing doses of BK or BK-Arg, in two different groups of rats. […] In these experiments, icatibant was intravenously administered as bolus (10 μg/kg, 0.1 ml) 15 min before the i.v. injection of increasing doses of BK, BK-His-Leu, B-9972, BK-Ala-Pro, or BK-Arg, in separated groups of rats, as above. The doses of different inhibitors were based on preliminary experiments and from studies performed by others ([Ishida et al., 1989]; [Wirth et al., 1991]; [Muto et al., 2003]), with deliberate low dosing for peptidase inhibitors for the sake of their selectivity of action. Whether a component of BK hemodynamic effects is mediated by the B1R was assessed in rats pre-treated with the specific B1R antagonist, B-9858 (20 μg/kg, 0.1 ml). B-9858 (Lys-Lys-[Hyp^3, Igl^5, D-Igl^7, Oic^8]des-Arg^9-BK) is a selective B1R antagonist ([Leeb-Lundberg et al., 2005]) that has been found active at the rat B1R ([Scott et al., 2003]).
Baseline values for MAP and HR measured in the untreated control group or 15 min after i.v. pretreatment with enalaprilat, icatibant or the Plummer’s inhibitor are shown in Table 2. While no significant changes in basal values of MAP were noted between the enalaprilat and Plummer’s inhibitor pretreated groups, a slight but significant reduction in basal MAP was found between the icatibant pretreated group and the control group. Furthermore, slight but significant reductions in basal HR were noted between the icatibant and Plummer’s inhibitor pretreated groups and the control group, while a small significant increase in basal HR was found between the enalaprilat pretreated groups and the control group.

[2] = tested on: anesthetized rats; test: In vivo vascular reactivity: hypotensive (MAP) response to i.v. bolus injections; parameters: species or system rat; settings: for doses at which the decrease in MAP was significant compared to vehicle: doses tested 0.025-6.4 μg/kg, untreated anesthetized rats, Dunnett's test
Procedure: (§3) At the end of the acclimation period, the rats were anesthetized with sodium pentobarbital (50 mg kg^-1, i.p., supplemented as required) and had two separate catheters implanted; one into the right jugular vein [for intravenous (i.v.) injection] and the other into the left femoral artery (for direct measurement of blood pressure and heart rate (HR). In some experiments, a pulsed Doppler flow probe ([Haywood et al., 1981]) was also implanted around the distal abdominal aorta (below the ileocecal artery) through a midline abdominal incision to monitor changes in hindquarter hemodynamic, according to the method developed by [Gardiner and Bennett (1988)] and as previously described ([Bachelard et al., 1992b]). The probes wires were connected to a pulsed Doppler monitoring system (VF-1 Doppler flowmeter; Crystal Biotech, Holliston, MA, USA) modified to operate with a pulse repetition frequency of 125 kHz ([Gardiner et al., 1990]) and fitted with HVPD-20 modules. The mean Doppler signal represents the average hindquarter blood flow velocity, a relative index of blood flow. […] Experiments started at least 30 min following the end of surgery in anesthetized rats.
as §1
The experiments were initiated after allowing at least 20 min for stabilization. Then, baseline measurements of HR and phasic and mean arterial blood pressure (MAP) were made over a period of 10 min. […] Peptides were dissolved in isotonic saline (0.9% NaCl) containing 0.1% BSA to prevent the adsorption of peptide to the glassware and plastic surfaces. All i.v. injections were given as 100 μl boluses which were washed in with a further 100 μl of saline (the dead space of the catheter). Only one peptide was tested per group of rats and each injection started with saline-BSA 0.1% followed by the lowest dose of peptide. The next dose was administered once all recorded cardiovascular parameters had returned to baseline after the previous injection (usually 2–10 min). At the end of the experiments each animal was euthanized with an overdose of sodium pentobarbitone (240 mg/kg, i.v.).
as §2, with “The doses of different inhibitors were based on preliminary experiments and from studies performed by others ([Ishida et al., 1989]; [Wirth et al., 1991]; [Muto et al., 2003]), with deliberate low dosing for peptidase inhibitors for the sake of their selectivity of action. Whether a component of BK hemodynamic effects is mediated by the B1R was assessed in rats pre-treated with the specific B1R antagonist, B-9858 (20 μg/kg, 0.1 ml). B-9858 (Lys-Lys-[Hyp^3, Igl^5, D-Igl^7, Oic^8]des-Arg^9-BK) is a selective B1R antagonist ([Leeb-Lundberg et al., 2005]) that has been found active at the rat B1R ([Scott et al., 2003]).” left out

[3] = tested on: anesthetized rats; test: In vivo vascular reactivity: heart rate changes after i.v. bolus injections; parameters: species or system rat
Procedure: as §3, with “rats. […]” for “rats.”
The experiments were initiated after allowing at least 20 min for stabilization. […] The next dose was administered once all recorded cardiovascular parameters had returned to baseline after the previous injection (usually 2–10 min). […]

[4] = icatibant 10 μg/kg i.v. 15 min before, agonist 0.025-6.4 μg/kg i.v.

C[C@H](N[C@@H](CCc1ccccc1)C(=O)O)C(=O)N1CCC[C@H]1C(=O)O [Enalaprilat, enalaprilat]
Basal mean arterial blood pressure (MAP) after pre-treatment ([1]; control 103.1 ± 1.8): 99.2 ± 1.5
Basal heart rate (HR) after pre-treatment ([1]; control 393 ± 6, in bpm): 416 ± 6ˆ*

N=C(N)NCCSCC(CS)C(=O)O (stereo not drawn) [Plummer’s inhibitor, mercaptomethyl-3-guanidinoethylthiopropanoic acid]
Basal mean arterial blood pressure (MAP) after pre-treatment ([1]; control 103.1 ± 1.8): 107.1 ± 4.7
Basal heart rate (HR) after pre-treatment ([1]; control 393 ± 6, in bpm): 353 ± 17ˆ*

D-Arg-[Hyp^3, Thi^5, D-Tic^7, Oic^8] bradykinin [Icatibant]
Basal mean arterial blood pressure (MAP) after pre-treatment ([1]; control 103.1 ± 1.8, in mmHg): 95.3 ± 1.6ˆ*
Basal heart rate (HR) after pre-treatment ([1]; control 393 ± 6, in bpm): 356 ± 8ˆ**

D-Arg-[Hyp^3,Igl^5,Oic^7,Igl^8]-BK [B-9972]
effect of enalaprilat pretreatment on the dose-dependent hypotensive response ([2]; enalaprilat 0.1 mg/kg i.v. 15 min before, agonist 0.025-6.4 μg/kg i.v.): not affected
half-recovery time of hypotensive episodes compared with a similar dose of BK ([2]; i.v. bolus, for B-9972 the highest dose): significantly longer
reduction of apparent hypotensive potency by icatibant ([2]; icatibant 10 μg/kg i.v. 15 min before): about 10 fold
effect of icatibant pretreatment on the hypotensive response [2, 4]: significantly abated

Lys-Lys-[Hyp^3, Igl^5, D-Igl^7, Oic^8]des-Arg^9-BK [B-9858]
Basal mean arterial blood pressure (MAP) after pre-treatment ([1]; control 103.1 ± 1.8): 103.3 ± 6.2
Basal heart rate (HR) after pre-treatment ([1]; control 393 ± 6, in bpm (unit assumed)): 397 ± 11

bradykinin (RPPGFSPFR; Bradykinin; UniProt P01042 381-389, looked up) [BK]
effect of B-9858 (B1R antagonist) pretreatment on the hypotensive response ([2]; B-9858 20 μg/kg i.v.): did not significantly modify
effect of Plummer's inhibitor pretreatment on the hypotensive response ([2]; Plummer's inhibitor 0.75 mg/kg i.v. 15 min before): no effect
potentiation of the hypotensive effect by enalaprilat pretreatment ([2]; enalaprilat 0.1 mg/kg i.v. 15 min before): ~15 fold
doses at which the decrease in MAP was significant compared to vehicle ([2]; i.v. bolus): ≥ 0.4 µg/kg
effect of icatibant pretreatment on the hypotensive response [2, 4]: significantly and extensively inhibited
dose at which a significant bradycardia preceded tachycardia [3]: 6.4 µg/kg
doses at which tachycardia accompanied the hypotensive response ([3]; doses tested 0.025-6.4 μg/kg, compared with vehicle): ≥ 0.4 µg/kg

des-Arg^9-BK
effect on MAP at the dose of 0.025 μg/kg ([2]; i.v. bolus, compared to vehicle, n = 9): no significant effect
doses at which the decrease in MAP was significant compared to vehicle ([2]; i.v. bolus): ≥ 0.1 µg/kg

— publication PMC4709452 (Frontiers in Pharmacology, 2016)
